In patent US10350199B2, “3-(1h-pyrrolo[2,3-b]pyridin-2-yl)-1h-indazoles and therapeutic uses thereof” (Samumed, LLC, priority 2015, dated 2019):

Legend:
Type in all cases: cell-based
[1] = system: SW480 colon cancer cells; assay: Cell viability assay (CellTiter-Blue), SW480 cells, four days; details: Homo sapiens; for EC50: 96 h, SW480 cell viability, four days, CellTiter-Blue; for inhibition at 10 µM: SW480, read-out: percent inhibition at 10 μM
Method: Representative compounds were screened using the following assay procedure to assess the effect on cell viability as described below.
Approximately 2×10^3 SW480 colon cancer cells were seeded into each well and allowed to incubate in the presence or absence of compound for four days at 37° C./5% CO2. Eight replicates of DMSO-treated cells served as controls and cells treated with compound were performed in duplicate.
After incubation, 20 μL of CellTiter-Blue (Promega) was added to each well allowed to incubate for approximately 3 hours. This reagent was a buffered solution which contains resazurin, metabolically active cells were able to reduce rezarurin (blue) into resorufin (pink) which was highly fluorescent. This measured fluorescence was used as a readout for cell viability.

[2] = system: primary human fibroblasts derived from IPF patients (LL29 cells) treated with TGF-β1; assay: Inhibition of the fibrotic process: αSMA staining in TGF-β1 treated LL29 fibroblasts; details: Fibroblast; for EC50: 96 h, LL29 cells, TGF-β1 20 ng/mL, 4 days, % αSMA positive cells; for inhibition at 10 µM: read-out: percent inhibition at 10 μM
Method: Representative compounds were screened using primary human fibroblasts (derived from IPF patients) treated with TGF-β1 to determine their ability to inhibit the fibrotic process.
LL29 cells are plated at 1,500 cells/well in 80 μL/well F12 medium supplemented with 1% Fetal Bovine Serum. […] Wells treated with TGF-β1 and containing DMSO were used as controls. […] Following incubation for 4 days, SYTOX green nucleic acid stain (Life Technologies [Thermo Fisher Scientific]) was added to the wells at a final concentration of 1 μM and incubated at room temperature for 30 min.

[3] = system: Wnt activity (Sp5-Luc reporter, SW480 colon carcinoma cells); assay: Wnt activity screening assay, Sp5-Luc reporter gene in SW480 cells; details: Homo sapiens; for EC50: Sp5-Luc reporter, SW480 cells, overnight incubation; for inhibition at 10 µM: SW480, read-out: percent inhibition at 10 μM
Excerpt: The screening assay for Wnt activity is described as follows. Reporter cell lines can be generated by stably transducing cancer cell lines (e.g., colon cancer) or primary cells (e.g., IEC-6 intestinal cells) with a lentiviral construct that includes a Wnt-responsive promoter driving expression of the firefly luciferase gene.
SW480 colon carcinoma cells were transduced with a lentiviral vector expressing luciferase with a human Sp5 promoter consisting of a sequence of eight TCF/LEF binding sites. SW480 cells stably expressing the Sp5-Luc reporter gene and a hygromycin resistance gene were selected by treatment with 150 μg/mL of hygromycin for 7 days. These stably transduced SW480 cells were expanded in cell culture and used for all further screening activities. […] For Sp5-Luc reporter gene assays, the cells were plated at 4,000 cells/well in 384-well plates with medium containing 1% fetal bovine serum and incubated overnight at 37° C. and 5% CO2. Following incubation, 20 μl of BrightGlo luminescence reagent (Promega) was added to each well of the 384-well assay plates. The plates were placed on an orbital shaker for 2 min and then luminescence was quantified using the Envision (Perkin Elmer) plate reader. Readings were normalized to DMSO only treated cells, and normalized activities were utilized for EC50 calculations using the dose-response log (inhibitor) vs. response -variable slope (four parameters) nonlinear regression feature available in GraphPad Prism 5.0 (or Dotmatics).

[4] = system: IL-6 (THP-1 human monocyte cell line); assay: IL-6 inhibition in LPS-stimulated THP-1 cells (HTRF); details: for EC50: IL-6 inhibition, LPS-stimulated THP-1 cells, HTRF; for inhibition at 10 µM: THP-1, read-out: percentage in parentheses beside EC50 >10 (IL-6 inhibition)
Method: THP-1 cells were cultured in basal media with 1% FBS for 24 hours before the start of the assay. […] THP-1 cells were plated at 5000 cells/well in the 384-well plates and incubated at 37° C. for 2 h. 500 ng/mL of LPS was added after 2 hours and cells were incubated for another 22 hours at 37° C. Plates were spun in a centrifuge for 1 minute at […] and a mixture of anti-IL6 XL665, and anti-IL6 Cryptate diluted in reconstitution buffer (Cisbio Inc.) was added to each well. Following incubation for 3 hrs at room temperature, Homogeneous Time-Resolved Fluorescence (HTRF) was measured using the Envision (Perkin Elmer) at 665 nm and […]. The ratio of fluorescence at 665 nm to 620 nm was used as a readout for IL6 quantification. All samples were processed in duplicate. Readings were normalized to DMSO treated cells and normalized activities were utilized for EC50 calculations using the dose-response log (inhibitor) vs. response -variable slope (four parameters) nonlinear regression feature available in GraphPad Prism 5.0 (or Dotmatics).

SMILES	EC50 [1] [µM]	EC50 [2] [µM]	inhibition at 10 µM [2] [%]	EC50 [3] [µM]	EC50 [4] [µM]	inhibition at 10 µM [3] [%]	inhibition at 10 µM [4] [%]	inhibition at 10 µM [1] [%]
CC(C)(C)C(=O)Nc1cncc(-c2ccc3[nH]nc(-c4cc5c(-c6cccs6)ccnc5[nH]4)c3c2)c1 [Compound 344, N-(5-(3-(4-(Thiophen-2-yl)-1H-pyrrolo[2,3-b]pyridin-2-yl)-1H-indazol-5-yl)pyridin-3-yl)pivalamide]	0.606	> 10	0	0.215	0.053			
c1cc(N2CCCCC2)c2cc(-c3n[nH]c4ccc(-c5cncc(OC6CCCCC6)c5)cc34)[nH]c2n1 [Compound 607, 5-(5-(Cyclohexyloxy)pyridin-3-yl)-3-(4-(piperidin-1-yl)-1H-pyrrolo[2,3-b]pyridin-2-yl)-1H-indazole]	8.58	7.1		> 10	> 10	28.4	20	
FC1(F)CCN(Cc2cncc(-c3ccc4[nH]nc(-c5cc6c(N7CCCCC7)ccnc6[nH]5)c4c3)c2)C1 [Compound 194, 5-(5-((3,3-Difluoropyrrolidin-1-yl)methyl)pyridin-3-yl)-3-(4-(piperidin-1-yl)-1H-pyrrolo[2,3-b]pyridin-2-yl)-1H-indazole]	> 10	5.9		> 10	> 10	26.2	33	18.5
CCC(=O)Nc1cncc(-c2ccc3[nH]nc(-c4cc5c(N6CCCCC6)ccnc5[nH]4)c3c2)c1 [Compound 169, N-(5-(3-(4-(Piperidin-1-yl)-1H-pyrrolo[2,3-b]pyridin-2-yl)-1H-indazol-5-yl)pyridin-3-yl)propionamide]	> 10	> 10	11.6	1.22	> 10		33	38.1
O=C(Nc1cncc(-c2ccc3[nH]nc(-c4cc5c(-c6ccccn6)ccnc5[nH]4)c3c2)c1)C1CCCCC1 [Compound 163, N-(5-(3-(4-(Pyridin-2-yl)-1H-pyrrolo[2,3-b]pyridin-2-yl)-1H-indazol-5-yl)pyridin-3-yl)cyclohexanecarboxamide]	> 10	> 10	0	> 10	1.54	38.8		11.1
CC(C)(C)CC(=O)Nc1cncc(-c2ccc3[nH]nc(-c4cc5c(-c6cccs6)ccnc5[nH]4)c3c2)c1 [Compound 352, 3,3-Dimethyl-N-(5-(3-(4-(thiophen-2-yl)-1H-pyrrolo[2,3-b]pyridin-2-yl)-1H-indazol-5-yl)pyridin-3-yl)butanamide]	0.872	0.355		0.432	0.073			
CCCC(=O)Nc1cncc(-c2ccc3[nH]nc(-c4cc5c(-c6ccc(F)cc6)ccnc5[nH]4)c3c2)c1 [Compound 45, N-(5-(3-(4-(4-Fluorophenyl)-1H-pyrrolo[2,3-b]pyridin-2-yl)-1H-indazol-5-yl)pyridin-3-yl)butyramide]	> 10	5.24		> 10	> 10	11	25.8	30.7
O=C(Nc1cncc(-c2ccc3[nH]nc(-c4cc5c(N6CCCCC6)ccnc5[nH]4)c3c2)c1)C1CC1 [Compound 188, N-(5-(3-(4-(Piperidin-1-yl)-1H-pyrrolo[2,3-b]pyridin-2-yl)-1H-indazol-5-yl)pyridin-3-yl)cyclopropanecarboxamide]	> 10	> 10	17.4	> 10	> 10	27.6	4.1	12.9
CN1CCN(c2ccnc3[nH]c(-c4n[nH]c5ccc(-c6cncc(OCc7ccccc7)c6)cc45)cc23)CC1 [Compound 646, 5-(5-(Benzyloxy)pyridin-3-yl)-3-(4-(4-methylpiperazin-1-yl)-1H-pyrrolo[2,3-b]pyridin-2-yl)-1H-indazole]	4.82	0.316		4.88	> 10		37.9	
CN(C)c1cncc(-c2ccc3[nH]nc(-c4cc5c(N6CCCCC6)ccnc5[nH]4)c3c2)c1 [Compound 175, N,N-Dimethyl-5-(3-(4-(piperidin-1-yl)-1H-pyrrolo[2,3-b]pyridin-2-yl)-1H-indazol-5-yl)pyridin-3-amine]	> 10	> 10	11.3	> 10	> 10	10.7	15.2	13.1
COc1cncc(-c2ccc3[nH]nc(-c4cc5c(-c6ccsc6)ccnc5[nH]4)c3c2)c1 [Compound 676, 5-(5-Methoxypyridin-3-yl)-3-(4-(thiophen-3-yl)-1H-pyrrolo[2,3-b]pyridin-2-yl)-1H-indazole]	> 10	7.78		> 10	> 10	21	38.4	0
NC1CN(c2cncc(-c3ccc4[nH]nc(-c5cc6c(N7CCCCC7)ccnc6[nH]5)c4c3)n2)C1 [Compound 606, 1-(6-(3-(4-(Piperidin-1-yl)-1H-pyrrolo[2,3-b]pyridin-2-yl)-1H-indazol-5-yl)pyrazin-2-yl)azetidin-3-amine]	> 10	3.62		> 10	> 10	20.2	39.1	10.2
c1cnc(-c2ccc3[nH]nc(-c4cc5c(-c6ccoc6)ccnc5[nH]4)c3c2)cn1 [Compound 696, 3-(4-(Furan-3-yl)-1H-pyrrolo[2,3-b]pyridin-2-yl)-5-(pyrazin-2-yl)-1H-indazole]	3.99	2.48		4.15	> 10		43.3	
CN(C)CCOc1cncc(-c2ccc3[nH]nc(-c4cc5c(-c6ccc(F)cc6)ccnc5[nH]4)c3c2)c1 [Compound 531, 2-((5-(3-(4-(4-Fluorophenyl)-1H-pyrrolo[2,3-b]pyridin-2-yl)-1H-indazol-5-yl)pyridin-3-yl)oxy)-N,N-dimethylethan-1-amine]	> 10	> 10	15.6	> 10	> 10	2.3	0	4.1
O=C(Nc1cncc(-c2ccc3[nH]nc(-c4cc5c(-c6cccc(F)c6)ccnc5[nH]4)c3c2)c1)C1CC1 [Compound 20, N-(5-(3-(4-(3-Fluorophenyl)-1H-pyrrolo[2,3-b]pyridin-2-yl)-1H-indazol-5-yl)pyridin-3-yl)cyclopropanecarboxamide]	1.06	7.73		0.035	> 10		34.5	
c1ccc(-c2ccc3[nH]nc(-c4cc5c(-c6cccs6)ccnc5[nH]4)c3c2)nc1 [Compound 364, 5-(Pyridin-2-yl)-3-(4-(thiophen-2-yl)-1H-pyrrolo[2,3-b]pyridin-2-yl)-1H-indazole]	1.14	2.2		3.38	1.57			
